For test [1], the target named is TYK2 (Homo sapiens, UniProt P29597). The conditions noted are these: WO2012062704; cited from earlier work.
Test [2] deals with SW480^APC cells. The test can be described thus: Soft agar colony growth assay, SW480APC. It is filed as cell-based, human. The conditions noted are these: 10 days, AZD1480 1 μM, S3I-201 50 μM, IL11 10 ng/ml. As to the method: (§1) e Photograph of SW480 and SW480^APC CRC cells grown for 10 days under colony forming conditions in soft agar in the presence of vehicle or 1 μM of Jak2 inhibitor AZD1480 (Jak2i) (Scale bar=200 μm)
(§2) f Colony forming capacity of an isogenic pair of SW480 cells scored 10 days after the indicated treatment. (*p≦0.04; triplicate cultures and repeated).
(§3) SW480 and SW480^APC cells (Faux et al., 2004) were seeded in 2 ml of RPMI media supplemented with 10% FBS and 1% penicillin/streptomycin in 35 mm culture dishes at a density of 2×10^5 cells per dish. Three days later cultures were exposed to AZD1480 (1 μM) for 15 min. Co-immunofluorescence was then performed with antibodies to rabbit phospho-Stat3 (Tyr705, Santa Cruz #9134s, 1:200 dilution) and mouse β-catenin (Transduction Laboratories, 1:400). Colony formation assays of SW480 cells in soft agar were performed as described (Faux et al., 2004) in the presence of either AZD1480, (1 μM), the Stat3 inhibitor S3I-201 (Biovision, 50 μM) or recombinant human IL11 (Genetics Institute, 10 ng/ml). All experiments were performed in triplicates and repeated at least once. Vehicle was methylcellulose.

Test [3] deals with SW480 cells. The test can be described thus: Soft agar colony growth assay, SW480. It is filed as cell-based, human. To be noted: SW480, 10 days; AZD1480 1 μM, S3I-201 50 μM, IL11 10 ng/ml. As to the method:
as §1, §2, §3

The test system of test [4] is intestinal organoids. In words: Organoid culture, crypt formation. It is filed as cell-based, mice. To be noted: S3I-201 7.5 μM from day 3 after seeding. The method, then: […] Arrows point to budding crypt-like structures. Scale bar=50 μm.
d Enumeration of crypts on individual organoids from experiment illustrated in FIG. 1c. (*p≦0.018; Two-sided t-test on triplicate cultures and repeated).
Crypts from small intestines were harvested, washed and were resuspended at 2000 crypts/ml of matrigel (BD Biosciences) and 50 μL was dispensed in each well of a 24-well plate. Once the matrigel had set, medium was added and the organoids cultured for seven days as described (Sato et al., 2009). Experiments were performed in triplicates and repeated.
Organoid cultures were imaged on a Nikon Ti-E microscope using DIC contrast with a 10x PlanApo NA0.3 objective. A focal stack of images was collected (10 μm apart) and processed through the Best Focus function of MetaMorph v7.7.7 (Molecular Devices, USA) to generate the final image of individual Organoids.

For test [5], the system named is intestinal tumours. In words: Intestinal tumour burden after tamoxifen-induced conditional Apc deletion in Lgr5CreERT2;Apcfl/fl mice. The conditions noted are these: Lgr5CreERT2;Apcfl/fl mice, CYT387 30 mg/kg oral gavage. It is filed as in vivo. As to the method:
e Quantification of intestinal tumour burden of mice using the Metamorph analysis tool (Barker et al., 2009) after tamoxifen-induced conditional Apc deletion in adult Lgr5^CreERT2;Apc^fl/fl mice that also received daily administration of AZD1480 (30 mg/kg) or vehicle during this time. (*p≦0.04; n=3 mice).
d Intestinal tumour burden 5 weeks after tamoxifen-induced conditional Apc deletion in adult Lgr5^CreERT2;Apc^fl/fl mice that also received daily administration of AZD1480 (Jak2i; 30 mg/kg) or vehicle during this time. Higher magnifications of the boxed areas are provided and arrows point to tubular adenomas whilst arrowheads point to micro-adenomas. Scale bars=1 mm.
10 week old Lgr5CreERT2;Apcfl/fl mice received four i.p injections with tamoxifen (10 mg/ml; 300 ul, 200 ul, 200 ul, 200 ul) over four consecutive days. Three days after the last injection, mice received daily oral gavages with either vehicle (tap water, pH 2.0) or CYT387 (30 mg/kg) for four weeks. Regime was 5 days treatment followed by 2 days off treatment.
Hematoxilin and Eosin-stained sections were scanned using an Aperio ScanScope XT (Aperio, USA) pathology slide scanner with a 20x PlanApo NA0.6 objective and areas of interest were extracted using Aperio ImageScope software v11.1.2.760. The area of individual tumors was outlined using MetaMorph v7.7.7 and standardized against the entire length of the colon section as described (Barker et al., 2009).

For test [6], the system named is SW480^APC cells. The test can be described thus: p-STAT3 immunofluorescence and SOCS3 RT-qPCR in SW480APC cells. To be noted: RT-qPCR, AZD1480 1 μM, IL11 10 ng/ml. It is filed as cell-based, human. The method, then: (§4) d Immunofluorescence staining for β-CATENIN or tyrosine-705 phosphorylated STAT3 in an isogenic pair of SW480 cells grown in the presence of 1 μM AZD1480 (Jak2i) or vehicle. SW480 cells are APC mutant and lack expression of functional APC protein, while SW480^APC cells have been reconstituted to express wild-type APC. Scale bar=20 μm.
(§5) g RT-qPCR expression analysis for the STAT3 target gene SOCS3 in SW480 and SW480^APC CRC cells grown for 10 days under colony forming conditions in soft agar in the presence of the indicated treatment. Expression in the vehicle-treated cultures was arbitrarily set as 1. (*p≦0.04; triplicate cultures in each of two repeats).
as §3
(§6) Gene expression analysis by RT-qPCR was performed using the SybrGreen method (ABI) as described previously (Phesse et al., 2008). Fold change was calculated using the 2^−ΔΔCT method (Livak et al., 2001). Protein expression was analysed by Western blot by transferring SDS-PAGE separated protein lysates to nitrocellulose membrane and blocked either in 5% non-fat milk powder and probed with antibodies detecting p16 (Santa Cruz; #sc-467), Bmi1 (Millipore #[…]), Actin (Sigma; #A2066) or Gapdh (Santa Cruz; #sc-69778). All antibodies were diluted 1:1000 in BSA or non-fat milk powder and incubations were performed overnight.

Test [7] has as its system IECs. The test can be described thus: RT-qPCR of IECs after i.p. injection of recombinant IL-11. It is filed as in vivo. To be noted: gp130^F/F mice, 30 minutes after i.p. 5 μg recombinant IL-11. The method, then: a RT-qPCR expression analysis for Socs3 and Bmi1 in IECs isolated from gp130^F/F mice 30 minutes after an i.p. injection of 5 μg of recombinant IL-11 (p=0.04; n=3 mice).
as §6
In general terms: Quantitative PCR measures a nucleic acid by following its amplification.

Test [8] concerns SW480 cells. The test can be described thus: p-STAT3 / β-CATENIN immunofluorescence and SOCS3 RT-qPCR in SW480 cells. It is filed as cell-based, human. To be noted: SW480, RT-qPCR; AZD1480 1 μM, IL11 10 ng/ml. The method, then:
as §4, §5, §3, §6

Where only a bound is given, the exact number is not on record here.

Chain of TYK2 (P29597 whole entry, species assumed): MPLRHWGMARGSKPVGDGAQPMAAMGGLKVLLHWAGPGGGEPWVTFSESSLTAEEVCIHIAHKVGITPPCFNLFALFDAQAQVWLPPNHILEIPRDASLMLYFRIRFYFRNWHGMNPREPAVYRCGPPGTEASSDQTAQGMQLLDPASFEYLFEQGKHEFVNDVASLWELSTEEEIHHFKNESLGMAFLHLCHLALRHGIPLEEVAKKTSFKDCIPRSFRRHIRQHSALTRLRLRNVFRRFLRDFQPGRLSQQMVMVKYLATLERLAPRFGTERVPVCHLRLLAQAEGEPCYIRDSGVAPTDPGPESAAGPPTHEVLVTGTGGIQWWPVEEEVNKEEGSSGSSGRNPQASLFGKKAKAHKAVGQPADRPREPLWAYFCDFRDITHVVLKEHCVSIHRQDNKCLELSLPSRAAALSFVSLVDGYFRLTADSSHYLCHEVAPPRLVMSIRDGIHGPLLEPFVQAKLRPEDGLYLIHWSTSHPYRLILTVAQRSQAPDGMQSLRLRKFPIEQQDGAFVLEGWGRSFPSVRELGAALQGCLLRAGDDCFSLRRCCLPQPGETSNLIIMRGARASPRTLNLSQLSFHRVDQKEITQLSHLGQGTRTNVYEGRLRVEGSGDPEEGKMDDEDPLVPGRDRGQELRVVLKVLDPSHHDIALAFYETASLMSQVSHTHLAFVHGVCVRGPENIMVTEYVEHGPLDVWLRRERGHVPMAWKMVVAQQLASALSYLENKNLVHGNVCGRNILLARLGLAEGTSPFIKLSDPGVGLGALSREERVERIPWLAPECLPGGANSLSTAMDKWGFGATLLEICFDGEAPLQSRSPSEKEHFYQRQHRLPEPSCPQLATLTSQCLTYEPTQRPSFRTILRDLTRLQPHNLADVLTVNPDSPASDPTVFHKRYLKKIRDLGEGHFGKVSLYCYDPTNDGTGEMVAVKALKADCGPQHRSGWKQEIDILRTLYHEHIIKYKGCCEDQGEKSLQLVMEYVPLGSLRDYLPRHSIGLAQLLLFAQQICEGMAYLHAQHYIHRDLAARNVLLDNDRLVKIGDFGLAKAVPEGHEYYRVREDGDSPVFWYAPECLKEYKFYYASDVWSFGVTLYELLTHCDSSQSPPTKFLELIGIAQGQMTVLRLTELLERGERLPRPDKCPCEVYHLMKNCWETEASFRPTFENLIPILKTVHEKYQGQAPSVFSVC

Regarding `COc1ccc(-c2nc(NC(=O)C3CC3)ncc2C)cc1F`, the “selectivity for TYK2” value in test [1] was more than 100 fold.
Take `Cc1ccc(S(=O)(=O)OCC(=O)Nc2ccc(C(=O)O)c(O)c2)cc1` [S3I-201]: the results for the “colony formation in soft agar” value in test [2] and in test [3] were “did not affect colony formation” and “strongly impaired”, respectively. Also, the “crypt formation of organoids” value in test [4] is given as “reduced”.
As to `N#CCNC(=O)c1ccc(-c2ccnc(Nc3ccc(N4CCOCC4)cc3)n2)cc1` [CYT387], the morphology of lesions entry in test [5] (4 weeks) is “retained the morphology of the growth arrested microadenomas”. Moreover, in test [5] (4 weeks (5 days on, 2 off), vehicle: large tubular adenomas), the “intestinal tumour burden (histological assessment)” value is recorded as “few small emerging lesion”.

B1: IL-11: recombinant gp130 cytokine IL-11 (Genetics Institute) (protein, UniProt P20809 22-199, looked up)
Interleukin-11: PGPPPGPPRVSPDPRAELDSTVLLTRSLLADTRQLAAQLRDKFPADGDHNLDSLPTLAMSAGALGALQLPGVLTRLRADLLSYLRHVQWLRRAGGSSLKTLEPELGTLQARLDRLLRRLQLLMSRLALPQPPPDPPAPPLAPPSSAWGGIRAAHAILGGLHLTLDWAVRGLLLLKTRL
On to B1, for which the “colony formation in soft agar” value in test [2] and in test [3] was “enhanced colony formation” each time. Also, the SOCS3 expression entry in test [6] and in test [8] was “increased SOCS3 expression” throughout. The “Bmi1 expression in IECs” value in test [7] is “rapidly induced”. The “Socs3 expression in IECs” value in test [7] is “rapidly induced”.

Source of the values: US20160045498A1, “METHODS OF TREATING DISEASES CHARACTERIZED BY EXCESSIVE WNT SIGNALLING” (THE WALTER AND ELIZA HALL INSTITUTE OF MEDICAL RESEARCH, priority 2013, published 2016).
